For this test, the system named is PMN isolated from a healthy donor. Briefly: FACS of untreated or Thapsigargin-treated PMN for LOX-1 expression. The test is classed as cell-based, human. The following applies: 1 μM Thapsigargin (THG). On the procedure:
FIGS. 10A and 10B show FACS analyses of PMN cells showing the expression of LOX-1. Representative histograms of untreated or Thapsigargin (THG)-treated cells were stained after incubating with anti-LOX-1 antibody (Ab) are shown. Percentage of LOX-1^+ PMN and expression of LOX-1 in PMN isolated from a healthy donor and treated with 1 μM […] and 1 mM Dithiothreitol (DTT). Representative LOX-1 expression level with anti-LOX-1 and commercial Abs. Representative LOX-1 expression level with DMAb derived Abs. Summary of data derived from FACS analysis of LOX-1 level is expressed as the % of LOX-1^+/CD15^+.

These results are taken from US20220381787A1, “NOVEL LOX-1 ANTIBODY COMPOSITIONS, LOX1 NEUTRALIZATION ASSAY AND METHODS OF TREATMENT USING SAME” (The Wistar Institute of Anatomy and Biology, priority 2019, published 2022).

Regarding `C/C=C(/C)C(=O)O[C@H]1C(C)=C2[C@H]([C@@H]1OC(=O)CCCCCCC)[C@@](C)(OC(C)=O)C[C@H](OC(=O)CCC)[C@@]1(O)[C@H]2OC(=O)[C@@]1(C)O` [THG, Thapsigargin], the “percentage of LOX-1+ PMN (% of LOX-1+/CD15+)” value is reported as “Higher percentages of PMN expressed LOX-1”.
